In the assay the target is T1, Miro1 (Homo sapiens, UniProt Q8IXI2).
T1 construct: We applied compound 3 to fibroblasts from one sporadic PD patient (PD-2); endogenous in cells; host or cells: human skin fibroblasts (PD-2, Healthy-1 and further PD/control lines)
Description: GTPase activity of Miro1 IPed from fibroblasts. In kind it is biochemical. Particulars: PD-2 fibroblasts, basal or depolarized condition. The method, then: FIG. 8. Related to FIG. 2-4. Miro1 Reducer in Human Cell and Fly Models. (A) Fibroblasts from Healthy-1 and PD-2 were treated, lysed, and blotted as indicated. Band intensities are normalized to those of GAPDH from the same blots and compared to “Healthy-1, no treatment”. n=4 independent experiments. (B) Fibroblasts from PD-2 were treated and immunostained as indicated. The intensity was quantified for each cell across 264-320 cells from 3 independent experiments, compared to “no treatment”. (C) Fibroblasts were treated, immunoprecipitated (IPed) with anti-Miro1, and blotted as indicated. Similar results were observed twice. (D) Similar as in (C), fibroblasts were treated as indicated, and IPed with anti-Miro1. The GTPase activity of the IPed Miro1 protein was measured as described in Method. […] The MitoSox intensity was quantified for each cell across 106-161 cells from 3 coverslips. […] The TMRM intensity was measured for each cell across 48-60 cells from 3 independent experiments, and expressed as a fraction of the mean of “Healthy-1, no treatment”. […] The movement (the intensity of non-yellow) was quantified for each cell as described in (Tsai et al., 2014) across 22-31 cells from 3 transfections. […] (1) Left: The percentage of TH-positive iPSC-derived neurons out of total cells (Dapi-positive) is calculated after immunocytochemistry under 20× as described in FIG. 3. […]

T1 sequence (Q8IXI2 whole entry): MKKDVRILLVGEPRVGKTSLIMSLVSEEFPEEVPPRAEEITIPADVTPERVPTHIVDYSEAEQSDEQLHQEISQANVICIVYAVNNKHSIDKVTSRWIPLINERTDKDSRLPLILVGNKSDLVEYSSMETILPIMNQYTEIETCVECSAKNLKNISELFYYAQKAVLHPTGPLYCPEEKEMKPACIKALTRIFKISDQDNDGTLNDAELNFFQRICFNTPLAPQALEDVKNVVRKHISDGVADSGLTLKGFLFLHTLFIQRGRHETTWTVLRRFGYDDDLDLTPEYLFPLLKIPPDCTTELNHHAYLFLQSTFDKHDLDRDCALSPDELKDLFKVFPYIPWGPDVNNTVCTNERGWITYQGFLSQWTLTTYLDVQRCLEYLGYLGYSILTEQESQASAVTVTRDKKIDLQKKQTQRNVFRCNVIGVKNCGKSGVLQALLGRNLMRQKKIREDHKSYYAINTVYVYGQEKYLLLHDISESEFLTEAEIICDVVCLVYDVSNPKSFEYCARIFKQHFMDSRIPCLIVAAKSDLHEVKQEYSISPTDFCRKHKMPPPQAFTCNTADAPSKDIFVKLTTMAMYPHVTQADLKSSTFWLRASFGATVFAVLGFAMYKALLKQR

Turning to `O=C(Nc1ccc(Nc2cc(-n3ccnc3)ncn2)cc1)Nc1cccc(F)c1` [Miro1 Reducer], the “GTPase activity of IPed Miro1” value is on record as “did not affect”.
